Test results from patent EP0973746B1, “SUBSTITUTED 3-CYANO QUINOLINES” (Wyeth Holdings Corporation, priority 1997, dated 1998).
Values after ≈ are worked out from the molar mass of the structure shown.

Key:
[1] = tested on: PC3; assay: Inhibition of cancer cell growth as measured by cell number, PC3; format: cell-based; details: Homo sapiens, PC-3; cell number, Sulforhodamine B, 48 hours exposure; Table 7; read-out: IC50 PC3
[2] = tested on: MCF7; assay: Inhibition of cancer cell growth as measured by cell number, MCF7; format: cell-based, human; details: Homo sapiens, MCF7, 48 h, cell number, Sulforhodamine B, 48 hours exposure; Table 5; read-out: IC50 MCF7;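 also: MCF7 was included as a line with little or no EGFR or HER2/neu expression, in contrast to the receptor-overexpressing lines of the panel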
Text: (§1) The cell lines were chosen since they overexpressed epidermal growth factor receptor (EGFR) (i.e. A431) or HER2/neu (SKBR3), or had little to no expression of the these receptors (SW620, LOX, MCF7).

[3] = tested on: DU145; assay: Inhibition of cancer cell growth as measured by cell number, DU145; format: cell-based; details: Homo sapiens, DU-145; cell number, Sulforhodamine B, 48 hours exposure; Table 7; read-out: IC50 DU145
[4] = tested on: CCRF-CFM; assay: Inhibition of cancer cell growth as measured by cell number, CCRF-CFM; format: cell-based; details: Homo sapiens; cell number, Sulforhodamine B, 48 hours exposure; Table 7; read-out: IC50 CCRF-CFM
[5] = molecular target: epidermal growth factor receptor kinase (Homo sapiens, UniProt P00533); assay: biochemical
Chain of epidermal growth factor receptor kinase (P00533 25-1210): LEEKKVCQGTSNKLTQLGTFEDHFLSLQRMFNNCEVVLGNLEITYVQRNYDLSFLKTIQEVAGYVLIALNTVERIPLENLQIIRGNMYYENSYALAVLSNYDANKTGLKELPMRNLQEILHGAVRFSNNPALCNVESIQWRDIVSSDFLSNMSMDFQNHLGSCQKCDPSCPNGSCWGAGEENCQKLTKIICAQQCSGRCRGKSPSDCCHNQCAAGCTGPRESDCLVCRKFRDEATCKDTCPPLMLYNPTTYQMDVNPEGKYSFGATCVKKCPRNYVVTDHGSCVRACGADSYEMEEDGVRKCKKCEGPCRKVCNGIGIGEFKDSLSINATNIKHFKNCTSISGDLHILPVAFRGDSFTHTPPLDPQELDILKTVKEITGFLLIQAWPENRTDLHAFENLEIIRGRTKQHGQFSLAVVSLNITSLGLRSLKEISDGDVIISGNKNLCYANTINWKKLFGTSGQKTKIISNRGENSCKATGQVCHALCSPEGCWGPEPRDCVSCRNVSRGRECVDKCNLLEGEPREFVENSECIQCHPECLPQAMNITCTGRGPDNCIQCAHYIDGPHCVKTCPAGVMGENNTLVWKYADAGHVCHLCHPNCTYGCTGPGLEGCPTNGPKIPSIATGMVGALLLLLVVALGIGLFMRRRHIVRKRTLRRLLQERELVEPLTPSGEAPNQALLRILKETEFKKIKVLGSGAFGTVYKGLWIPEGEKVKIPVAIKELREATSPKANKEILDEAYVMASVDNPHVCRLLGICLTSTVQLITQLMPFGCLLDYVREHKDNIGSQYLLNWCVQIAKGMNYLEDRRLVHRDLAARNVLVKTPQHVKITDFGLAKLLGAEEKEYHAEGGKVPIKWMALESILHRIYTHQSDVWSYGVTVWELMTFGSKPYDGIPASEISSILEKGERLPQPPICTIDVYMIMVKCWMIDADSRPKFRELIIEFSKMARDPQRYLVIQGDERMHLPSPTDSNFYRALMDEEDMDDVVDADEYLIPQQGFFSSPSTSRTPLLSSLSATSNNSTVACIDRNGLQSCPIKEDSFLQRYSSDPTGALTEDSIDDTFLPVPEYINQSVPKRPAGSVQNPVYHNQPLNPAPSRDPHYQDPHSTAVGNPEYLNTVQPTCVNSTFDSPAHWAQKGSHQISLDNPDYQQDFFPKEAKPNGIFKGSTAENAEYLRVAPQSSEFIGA

[6] = tested on: LOX; assay: Inhibition of cancer cell growth as measured by cell number, LOX; format: cell-based, human; details: Homo sapiens, LOX, 48 h, cell number, Sulforhodamine B, 48 hours exposure; Table 6; read-out: IC50 LOX;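 also: LOX cells served as a line with low or absent EGFR and HER2/neu expression, in contrast to receptor-overexpressing lines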
Text: as §1

[7] = tested on: COLO205; assay: Inhibition of cancer cell growth as measured by cell number, COLO205; format: cell-based; details: Homo sapiens, COLO 205; cell number, Sulforhodamine B, 48 hours exposure; Table 4; read-out: IC50 COLO205
[8] = molecular target: recombinant human MEK 1 (MAPKK) and recombinant human ERK2 (MAPK); assay: Mitogen Activated Protein Kinase (MAPK) assay, two component coupled MEK 1 / ERK2; format: biochemical; details: separate entries for the same compound = evaluated more than one time;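 also: MEK 1-activated ERK2 phosphorylates MBP or Myc peptide with 33P-ATP, filter capture and scintillation counting, inhibitor preincubated with ERK2 30 min at 0 °C, inhibition relative to uninhibited control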
Experimental: To evaluate inhibitors of the MAP (mitogen activated protein) kinase a two component coupled standard pharmacological test procedure, which measures phosphorylation of a serine/threonine residue in an appropriate sequence in the substrate in the presence and absence of a putative inhibitor, was used. Recombinant human MEK 1 (MAPKK) was first used to activate recombinant human ERK2 (MAPK) and the activated MAPK (ERK) was incubated with substrate (MBP peptide or MYC peptide) in the presence of ATP, Mg^+2 and radiolabeled ^33P ATP. The phosphorylated peptide was captured on a P 81 phosphocellulose filter (paper filter or embedded in microtiter plate) washed and counted by scintillation methods.
The peptide substrates used in the assay are MBP, peptide substrate ([sequence]), or synthetic Myc substrate, ([sequence]•5 TFA. The recombinant enzymes used were prepared as GST fusion proteins of human ERK 2 and human MEK 1. Inhibitor samples were prepared as 10X stocks in 10% DMSO and an appropriate aliquot was used to deliver either 10 ug/ml for a single point screening dose or 100, 10, 1, and 0.1 uM final concentration for a dose response curve. Final DMSO concentrations were less than or equal to 1%.
The reaction was run as follows in 50 mM Tris kinase buffer, pH 7.4 in a reaction volume of 50 ul. The appropriate volume of kinase buffer and inhibitor sample was added to the tube. Appropriate dilution of enzyme was delivered to give 2-5 ug recombinant MAPK (Erk ) per tube. The inhibitor was incubated with MAPK (Erk) for 30 min at 0 deg. […] Recombinant Mek (MAPKK) ( 0.5-2.5 ug) or fully activated Mek (0.05-0.1 units) was added to activate the Erk and incubated for 30 min at 30° C. […] Samples were incubated at 30°C for 30 minutes and the reaction was stopped by adding 25 µl of ice cold 10 %TCA .After samples were chilled on ice for 30 min, 20 µl of sample was transferred onto P 81 phosphocellulose filter paper or appropriate MTP with embedded P 81 filter. Filter papers or MTP were washed 2 times with a large volume of 1% acetic acid, then 2 times with water. The filters or MTP were briefly air dried before addition of scintillant and samples were counted in the appropriate scintillation counter set up for reading ^33P isotope.
The raw data was captured as cpm. Sample replicates were averaged and corrected for background count. Mean cpm data was tabulated by group and % inhibition by a test compound was calculated as (corrected cpm control- corrected. cpm sample/control) X 100 = % inhibition.

[9] = tested on: SW948; assay: Inhibition of cancer cell growth as measured by cell number, SW948; format: cell-based; details: Homo sapiens, SW948; cell number, Sulforhodamine B, 48 hours exposure; Table 5; read-out: IC50 SW948
[10] = tested on: B7474; assay: Inhibition of cancer cell growth as measured by cell number, B7474; format: cell-based; details: Homo sapiens; cell number, Sulforhodamine B, 48 hours exposure; Table 6; read-out: IC50 B7474
[11] = tested on: A431; assay: Inhibition of cell growth by incorporation of [3H]-thymidine, A431; format: cell-based, human; details: Homo sapiens, A-431; [3H]-thymidine incorporation; A431; read-out: IC50 A431
[12] = tested on: SKBR3; assay: Inhibition of cancer cell growth as measured by cell number, SKBR3; format: cell-based, human; details: Homo sapiens, SK-BR-3; cell number, Sulforhodamine B, 48 hours exposure; Table 7; read-out: IC50 SKBR3;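 also: SK-BR-3 cells were selected as a line overexpressing HER2/neu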
Text: as §1

[13] = tested on: SW620; assay: Inhibition of cancer cell growth as measured by cell number, SW620; format: cell-based, human; details: Homo sapiens, SW-620, 48 h, cell number, Sulforhodamine B, 48 hours exposure; Table 4; read-out: IC50 SW620;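 also: SW620 was included as a cell line with little or no EGFR or HER2/neu expression, in contrast to receptor-overexpressing lines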
Text: as §1

[14] = tested on: HCT15; assay: Inhibition of cancer cell growth as measured by cell number, HCT15; format: cell-based; details: Homo sapiens, HCT-15; cell number, Sulforhodamine B, 48 hours exposure; Table 5; read-out: IC50 HCT15
[15] = tested on: HL60; assay: Inhibition of cancer cell growth as measured by cell number, HL60; format: cell-based; details: Homo sapiens, HL-60; cell number, Sulforhodamine B, 48 hours exposure; Table 7; read-out: IC50 HL60
[16] = tested on: A431; assay: Inhibition of cancer cell growth as measured by cell number, A431; format: cell-based, human; details: Homo sapiens, A-431, 48 h, cell number, Sulforhodamine B, 48 hours exposure; Table 6; read-out: IC50 A431;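 also: human A431 line, picked because it overexpresses epidermal growth factor receptor (EGFR)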
Text: as §1

[17] = tested on: LS174T; assay: Inhibition of cancer cell growth as measured by cell number, LS174T; format: cell-based; details: Homo sapiens, cell number, Sulforhodamine B, 48 hours exposure, Table 5, read-out: IC50 LS174T
[18] = tested on: CCL228; assay: Inhibition of cancer cell growth as measured by cell number, CCL228; format: cell-based; details: Homo sapiens; cell number, Sulforhodamine B, 48 hours exposure; Table 5; read-out: IC50 CCL228
[19] = tested on: NEC; assay: Inhibition of cancer cell growth as measured by cell number, NEC; format: cell-based; details: Homo sapiens; cell number, Sulforhodamine B, 48 hours exposure; Table 6; read-out: IC50 NEC
[20] = tested on: CACO2; assay: Inhibition of cancer cell growth as measured by cell number, CACO2; format: cell-based; details: Homo sapiens, Caco-2; cell number, Sulforhodamine B, 48 hours exposure; Table 5; read-out: IC50 CACO2
[21] = tested on: A27805; assay: Inhibition of cancer cell growth as measured by cell number, A27805; format: cell-based; details: Homo sapiens; cell number, Sulforhodamine B, 48 hours exposure; Table 4; read-out: IC50 A27805
[22] = tested on: LNCAP; assay: Inhibition of cancer cell growth as measured by cell number, LNCAP; format: cell-based; details: Homo sapiens, cell number, Sulforhodamine B, 48 hours exposure, Table 7, read-out: IC50 LNCAP
[23] = tested on: LX1; assay: Inhibition of cancer cell growth as measured by cell number, LX1; format: cell-based; details: Homo sapiens, LX-1; cell number, Sulforhodamine B, 48 hours exposure; Table 6; read-out: IC50 LX1
[24] = tested on: CX1; assay: Inhibition of cancer cell growth as measured by cell number, CX1; format: cell-based; details: Homo sapiens, CX-1; cell number, Sulforhodamine B, 48 hours exposure; Table 4; read-out: IC50 CX1
[25] = tested on: HTB161; assay: Inhibition of cancer cell growth as measured by cell number, HTB161; format: cell-based; details: Homo sapiens; cell number, Sulforhodamine B, 48 hours exposure; Table 4; read-out: IC50 HTB161
[26] = tested on: MIP; assay: Inhibition of cancer cell growth as measured by cell number, MIP; format: cell-based; details: Homo sapiens; cell number, Sulforhodamine B, 48 hours exposure; Table 4; read-out: IC50 MIP
[27] = tested on: NHEK; assay: Inhibition of cell growth by incorporation of [3H]-thymidine, NHEK; format: cell-based, human; details: Homo sapiens, [3H]-thymidine incorporation, read-out: IC50 NHEK
[28] = tested on: A2780DDP; assay: Inhibition of cancer cell growth as measured by cell number, A2780DDP; format: cell-based; details: Homo sapiens; cell number, Sulforhodamine B, 48 hours exposure; Table 4; read-out: IC50 A2780DDP
[29] = tested on: T47D; assay: Inhibition of cancer cell growth as measured by cell number, T47D; format: cell-based; details: Homo sapiens, cell number, Sulforhodamine B, 48 hours exposure, Table 6, read-out: IC50 T47D
[30] = tested on: A549; assay: Inhibition of cancer cell growth as measured by cell number, A549; format: cell-based; details: Homo sapiens, A549; cell number, Sulforhodamine B, 48 hours exposure; Table 6; read-out: IC50 A549

CCCC(=O)Nc1ccc2ncc(C#N)c(Nc3cccc(Br)c3)c2c1 [Example 17, N-[4-[(3-Bromophenyl)amino]-3-cyano-6-quinolinyl] butanamide]
IC50 [1]: > 100 µg/mL
IC50 [2]: 68.2 µg/mL (≈ 167 µM)
IC50 [3]: 7.81 µg/mL (≈ 19.1 µM)
IC50 [4]: > 100 µg/mL
IC50 [5]: 9 µM
IC50 [6]: 74.2 µg/mL (≈ 181 µM)
IC50 [7]: > 100 µg/mL
IC50 [8]: > 100 µM
IC50 [9]: > 100 µg/mL
IC50 [10]: 95.7 µg/mL (≈ 234 µM)
IC50 [11]: 25 µM
IC50 [12]: 79.7 µg/mL (≈ 195 µM)
IC50 [13]: > 100 µg/mL
IC50 [14]: 98.9 µg/mL (≈ 242 µM)
IC50 [15]: > 100 µg/mL
IC50 [16]: 38.1 µg/mL (≈ 93 µM)
IC50 [17]: 87 µg/mL (≈ 213 µM)
IC50 [18]: > 100 µg/mL
IC50 [19]: > 100 µg/mL
IC50 [20]: 5.63 µg/mL (≈ 13.8 µM)
IC50 [21]: 9.8 µg/mL (≈ 23.9 µM)
IC50 [22]: 90 µg/mL (≈ 220 µM)
IC50 [23]: > 100 µg/mL
IC50 [24]: 81.9 µg/mL (≈ 200 µM)
IC50 [25]: 7.89 µg/mL (≈ 19.3 µM)
IC50 [26]: 100 µg/mL (≈ 244 µM)
IC50 [27]: 9 µM
IC50 [28]: 60.4 µg/mL (≈ 147 µM)
IC50 [29]: > 100 µg/mL
IC50 [30]: > 100 µg/mL
